Data reported in patent US8993604B2, “Treatment and prevention of dengue virus infections” (Siga Technologies, Inc., priority 2009, dated 2015).

System: Dengue-2 (Strain New Guinea C)
Assay: Viral yield assay in Vero cells
Format: cell-based
Conditions: Dengue virus; Vero cells, MOI 0.1, harvested 48 hours post infection; read-out: Activity (anti-dengue 2 viral activity, EC50 class)
Description: Compounds that were active in the primary screen were tested for activity in viral yield assays. […] Vero cells in 12-well plates were infected with dengue-2 virus at a multiplicity of infection (MOI) of 0.1, treated with compound (or DMSO as a control), incubated at 37° C., harvested 48 hours post infection and titered on Vero cells as described above. The EC50 was calculated through ExcelFit. Activities against other serotypes of dengue virus were determined in a similar way.

## COc1ccccc1C(=O)Nc1cc(-c2nc3ccccc3s2)ccc1C [Compound 52, N-(5-Benzothiazol-2-yl-2-methyl-phenyl)-2-methoxy-benzamide]
  EC50: > 25 µM

## O=C(Nc1ccc(O)c(-c2nc3ccccc3s2)c1)c1ccc([N+](=O)[O-])cc1 [Compound 53, N-(3-Benzothiazol-2-yl-4-hydroxy-phenyl)-4-nitro-benzamide]
  EC50: > 25 µM

## O=C(Nc1ccc(-c2nc3ccccc3s2)c(O)c1)c1ccccc1F [Compound 54, N-(4-Benzothiazol-2-yl-3-hydroxy-phenyl)-2-fluoro-benzamide]
  EC50: > 25 µM

## Cc1ccccc1C(=O)Nc1ccc(O)c(-c2nc3ccccc3s2)c1 [Compound 55, N-(3-Benzothiazol-2-yl-4-hydroxy-phenyl)-2-methyl-benzamide]
  EC50: > 25 µM

## O=C(Nc1ccc(O)c(-c2nc3ccccc3s2)c1)c1ccccc1 [Compound 56, N-(3-Benzothiazol-2-yl-4-hydroxy-phenyl)-benzamide]
  EC50: > 25 µM

## O=C(Nc1ccc(O)c(-c2nc3ccccc3s2)c1)c1ccccc1F [Compound 57, N-(3-Benzothiazol-2-yl-4-hydroxy-phenyl)-2-fluoro-benzamide]
  EC50: > 25 µM

## COc1cccc(C(=O)Nc2ccc(O)c(-c3nc4ccccc4s3)c2)c1 [Compound 58, N-(3-Benzothiazol-2-yl-4-hydroxy-phenyl)-3-methoxy-benzamide]
  EC50: > 25 µM

## O=C(Nc1ccc(-c2nc3ccccc3s2)c(O)c1)c1ccccc1 [Compound 59, N-(4-Benzothiazol-2-yl-3-hydroxy-phenyl)-benzamide]
  EC50: > 25 µM

## COc1ccc(C(=O)Nc2ccc(-c3nc4ccccc4s3)c(O)c2)cc1[N+](=O)[O-] [Compound 60, N-(4-Benzothiazol-2-yl-3-hydroxy-phenyl)-4-methoxy-3-nitro-benzamide]
  EC50: > 25 µM

## O=C(Nc1ccc(O)c(-c2nc3ccccc3s2)c1)c1ccc(F)cc1 [Compound 61, N-(3-Benzothiazol-2-yl-4-hydroxy-phenyl)-4-fluoro-benzamide]
  EC50: > 25 µM

## O=C(Nc1ccc(O)c(-c2nc3ccccc3s2)c1)c1cccc(F)c1 [Compound 62, N-(3-Benzothiazol-2-yl-hydroxy-phenyl)-3-fluoro-benzamide]
  EC50: > 25 µM

## Cc1c(NC(=O)c2cc([N+](=O)[O-])ccc2Cl)cccc1-c1nc2ccccc2s1 [Compound 63, N-(3-Benzothiazol-2-yl-2-methyl-phenyl)-2-chloro-5-nitro-benzamide]
  EC50: > 25 µM

## COc1ccc(C(=O)Nc2cccc(-c3nc4ccccc4s3)c2C)cc1[N+](=O)O [Compound 64, N-(3-Benzothiazol-2-yl-2-methyl-phenyl)-4-methoxy-3-nitro-benzamide]
  EC50: > 25 µM

## Cc1c(NC(=O)c2ccc([N+](=O)[O-])cc2)cccc1-c1nc2ccccc2s1 [Compound 65, N-(3-Benzothiazol-2-yl-2-methyl-phenyl)-4-nitro-benzamide]
  EC50: > 25 µM

## Cc1c(NC(=O)c2ccccc2F)cccc1-c1nc2ccccc2s1 [Compound 66, N-(3-Benzothiazol-2-yl-2-methyl-phenyl)-2-fluoro-benzamide]
  EC50: > 25 µM

## O=C(Nc1cc(-c2nc3ccccc3s2)ccc1Cl)c1ccccc1[N+](=O)[O-] [Compound 67, N-(5-Benzothiazol-2-yl-2-chloro-phenyl)-2-nitro-benzamide]
  EC50: > 25 µM

## Cc1ccc(-c2nc3ccccc3s2)cc1NC(=O)c1ccccc1[N+](=O)O [Compound 68, N-(5-Benzothiazol-2-yl-2-methyl-phenyl)-2-nitro-benzamide]
  EC50: > 25 µM

## COc1cc(C(=O)Nc2cccc(-c3nc4ccccc4s3)c2C)cc(OC)c1OC [Compound 69, N-(3-Benzothiazol-2-yl-2-methyl-phenyl)-3,4,5-trimethoxy-benzamide]
  EC50: > 25 µM

## COc1cc(C(=O)Nc2cc(-c3nc4ccccc4s3)ccc2Cl)cc(OC)c1OC [Compound 70, N-(5-Benzothiazol-2-yl-2-chloro-phenyl)-3,4,5-trimethoxy-benzamide]
  EC50: > 25 µM

## Cc1ccccc1C(=O)Nc1cc(-c2nc3ccccc3s2)ccc1Cl [Compound 71, N-(5-Benzothiazol-2-yl-2-chloro-phenyl)-2-methyl-benzamide]
  EC50: > 25 µM

## O=C(Nc1ccc(O)c(-c2nc3ccccc3s2)c1)c1ccc2c(c1)OCCO2 [Compound 72, 2,3-Dihydro-benzo[1,4]dioxine-6-carboxylic acid (3-benzothiazol-2-yl-4-hydroxy-phenyl)-amide]
  EC50: > 25 µM

## Cc1c(NC(=O)c2ccc([N+](=O)[O-])cc2Cl)cccc1-c1nc2ccccc2s1 [Compound 73, N-(3-Benzothiazol-2-yl-2-methyl-phenyl)-2-chloro-4-nitro-benzamide]
  EC50: > 25 µM

## CCCOc1cccc(C(=O)Nc2cc(-c3nc4ccccc4s3)ccc2C)c1 [Compound 74, N-(5-Benzothiazol-2-yl-2-methyl-phenyl)-3-propoxy-benzamide]
  EC50: > 25 µM

## Cc1ccc(-c2nc3ccccc3s2)cc1NC(=O)c1ccc2c(c1)OCCO2 [Compound 75, 2,3-Dihydro-benzo[1,4]dioxine-6-carboxylic acid (5-benzothiazol-2-yl-2-methyl-phenyl)-amide]
  EC50: > 25 µM

## O=C(Nc1ccc(-c2nc3ccccc3s2)cc1)c1cccc(F)c1 [Compound 76, N-(4-Benzothiazol-2-yl-phenyl)-3-fluoro-benzamide]
  EC50: > 25 µM

## COc1c(Cl)cc(C(=O)Nc2cc(-c3nc4ccccc4s3)ccc2Cl)cc1Cl [Compound 77, N-(5-Benzothiazol-2-yl-2-chloro-phenyl)-3,5-dichloro-4-methoxy-benzamide]
  EC50: > 25 µM

## Cc1c(C(=O)Nc2ccc(-c3nc4ccccc4s3)c(O)c2)cccc1[N+](=O)[O-] [Compound 78, N-(4-Benzothiazol-2-yl-3-hydroxy-phenyl)-2-methyl-3-nitro-benzamide]
  EC50: > 25 µM

## O=C(Nc1ccc(-c2nc3ccccc3s2)cc1)c1c(F)cccc1F [Compound 79, N-(4-Benzothiazol-2-yl-phenyl)-2,6-difluoro-benzamide]
  EC50: > 25 µM

## CC(=O)Nc1ccc(C(=O)Nc2ccc(-c3nc4ccc(C)cc4s3)cc2)cc1 [Compound 80, 4-Acetylamino-N-[4-(6-methyl-benzothiazol-2-yl)-phenyl]-benzamide]
  EC50: > 25 µM

## COC(=O)c1cc(C(=O)Nc2ccc(-c3nc4ccc(C)cc4s3)cc2)cc([N+](=O)O)c1 [Compound 81, N-[4-(6-Methyl-benzothiazol-2-yl)-phenyl]-5-nitro-isophthalamic acid methyl ester]
  EC50: > 25 µM

## N#Cc1ccc(C(=O)Nc2ccc(Cl)c(-c3nc4ccccc4s3)c2)c(F)c1 [Compound 82, N-(3-Benzothiazol-2-yl-4-chloro-phenyl)-4-cyano-2-fluoro-benzamide]
  EC50: > 25 µM

## O=C(Nc1cccc(-c2nc3ccccc3s2)c1)c1ccccc1I [Compound 83, N-(3-Benzothiazol-2-yl-phenyl)-2-iodo-benzamide]
  EC50: > 25 µM

## COc1ccc(C(=O)Nc2cccc(-c3nc4ccccc4s3)c2)cc1[N+](=O)[O-] [Compound 84, N-(3-Benzothiazol-2-yl-phenyl)-4-methoxy-3-nitro-benzamide]
  EC50: > 25 µM

## Cc1cc(C(=O)Nc2ccc(-c3nc4ccccc4s3)cc2)ccc1[N+](=O)[O-] [Compound 85, N-(4-Benzothiazol-2-yl-phenyl)-3-methyl-4-nitro-benzamide]
  EC50: > 25 µM

## COc1cc(OC)cc(C(=O)Nc2ccc(Cl)c(-c3nc4ccccc4s3)c2)c1 [Compound 86, N-(3-Benzothiazol-2-yl-4-chloro-phenyl)-3,5-dimethoxy-benzamide]
  EC50: > 25 µM

## Cc1ccc(C(=O)Nc2ccc(-c3nc4ccc(C)cc4s3)cc2)c(Cl)c1 [Compound 87, 2-Chloro-4-methyl-N-[4-(6-methyl-benzothiazol-2-yl)-phenyl]-benzamide]
  EC50: > 25 µM

## COc1ccc(C(=O)Nc2ccc(-c3nc4ccccc4s3)cc2)cc1[N+](=O)[O-] [Compound 88, N-(4-Benzothiazol-2-yl-phenyl)-4-methoxy-3-nitro-benzamide]
  EC50: > 25 µM

## Cc1ccc(C(=O)Nc2cccc(-c3nc4ccccc4s3)c2)cc1 [Compound 89, N-(3-Benzothiazol-2-yl-phenyl)-4-methyl-benzamide]
  EC50: > 25 µM

## O=C(Nc1cccc(-c2nc3ccccc3s2)c1)c1ccc(F)cc1 [Compound 90, N-(3-Benzothiazol-2-yl-phenyl)-4-fluoro-benzamide]
  EC50: > 25 µM

## COc1ccc(C(=O)Nc2cccc(-c3nc4ccccc4s3)c2)cc1 [Compound 91, N-(3-Benzothiazol-2-yl-phenyl)-4-methoxy-benzamide]
  EC50: > 25 µM

## Cc1ccccc1C(=O)Nc1cccc(-c2nc3ccccc3s2)c1 [Compound 92, N-(3-Benzothiazol-2-yl-phenyl)-2-methyl-benzamide]
  EC50: > 25 µM

## O=C(Nc1ccccc1-c1nc2ccccc2s1)c1ccccc1F [Compound 93, N-(2-Benzothiazol-2-yl-phenyl)-2-fluoro-benzamide]
  EC50: > 25 µM

## CCN(CC)S(=O)(=O)c1ccc(C(=O)Nc2ccccc2-c2nc3ccccc3s2)cc1 [Compound 94, N-(2-Benzothiazol-2-yl-phenyl)-4-diethylsulfamoyl-benzamide]
  EC50: > 25 µM

## COc1cccc(OC)c1C(=O)Nc1ccc(-c2nc3ccccc3s2)cc1 [Compound 95, N-(4-Benzothiazol-2-yl-phenyl)-2,6-dimethoxy-benzamide]
  EC50: > 25 µM

## O=C(Nc1cccc(-c2nc3ccccc3s2)c1)c1ccc(N2CCCC2)c([N+](=O)[O-])c1 [Compound 96, N-(3-Benzothiazol-2-yl-phenyl)-3-nitro-4-pyrrolidin-1-yl-benzamide]
  EC50: > 25 µM

## O=C(Nc1ccccc1-c1nc2ccccc2s1)c1cccc(Cl)c1Cl [Compound 97, N-(2-Benzothiazol-2-yl-phenyl)-2,3-dichloro-benzamide]
  EC50: > 25 µM

## O=C(Nc1ccccc1-c1nc2ccccc2s1)c1ccc([N+](=O)[O-])cc1Cl [Compound 98, N-(2-Benzothiazol-2-yl-phenyl)-2-chloro-4-nitro-benzamide]
  EC50: > 25 µM
